From ChEMBL document CHEMBL4130616, “Bastimolide B, an Antimalarial 24-Membered Marine Macrolide Possessing a tert-Butyl Group” (J Nat Prod, 2018)

System: Plasmodium falciparum
Assay: Antimalarial activity against chloroquine-sensitive Plasmodium falciparum HB3 by pico-green dye based fluorescence assay
Assay type: functional, organism-based

IC50 (Plasmodium falciparum, HB3) [µM]	IC50 [µM]	Compound
9.7		C/C1=C/C(=O)O[C@H](C(C)(C)C)CCC[C@H](O)CCC[C@H](O)CCC[C@H](O)CCC[C@@H]2C[C@H](C[C@H](O)CCC[C@@H](O)CCC[C@@H]3C[C@H](CCCCC1)OC(C)(C)O3)OC(C)(C)O2
5.7		C/C1=C/C(=O)O[C@H](CCC[C@@H](O)CCC[C@@H](O)CCC[C@@H](O)CCC[C@H](O)C(C)(C)C)C[C@@H](O)C[C@H](O)CCC[C@@H](O)CCC[C@@H](O)C[C@@H](O)CCCCC1
	1.4	C/C1=C/C(=O)O[C@H](C(C)(C)C)CCC[C@H](O)CCC[C@H](O)CCC[C@H](O)CCC[C@@H](O)C[C@@H](O)C[C@H](O)CCC[C@@H](O)CCC[C@@H](O)C[C@@H](O)CCCCC1 [listing 1 of 2 here]
2.6		C/C1=C/C(=O)O[C@H](C(C)(C)C)CCC[C@H](O)CCC[C@H](O)CCC[C@H](O)CCC[C@@H](O)C[C@@H](O)C[C@H](O)CCC[C@@H](O)CCC[C@@H](O)C[C@@H](O)CCCCC1 [listing 2 of 2 here]
2.3		C/C1=C/C(=O)O[C@H](C(C)(C)C)CCC[C@H](O)CCC[C@H](O)CCC[C@H](O)CCC[C@@H](O)C[C@@H](O)C[C@H](O)CCC[C@@H](O)CCC[C@@H]2C[C@H](CCCCC1)OC(C)(C)O2
20		C/C1=C/C(=O)O[C@H](C(C)(C)C)CCC[C@H](O)CCC[C@H](O)CCC[C@H](O)CCC[C@@H]2C[C@H](C[C@H](O)CCC[C@@H](O)CCC[C@@H](O)C[C@@H](O)CCCCC1)OC(C)(C)O2
